Broadly, the pIC50 is the negative decadic logarithm of the IC50, by convention in mol/L.

For 25 compounds, IC50 results are on record in patent US9682978B2, “2,6,7 substituted purines as HDM2 inhibitors” (Merck Sharp & Dohme Corp., priority 2013, dated 2017).

The structures appear in SMILES notation. pIC50: −log10 of the molar value.

The target in the test is T1, HDM2 (Homo sapiens, UniProt Q00987).
T1 construct: Thioredoxin (N); made in house; host or cells: E. coli BL21(DE3)Rosetta (pET32a)
T1 sequence (Q00987 17-125): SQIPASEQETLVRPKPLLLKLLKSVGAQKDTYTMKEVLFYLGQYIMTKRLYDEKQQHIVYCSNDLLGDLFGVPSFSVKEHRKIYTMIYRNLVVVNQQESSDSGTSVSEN
The test is described as follows: HDM2 FRET assay (inhibition of p53 peptide binding to HDM2). Particulars: truncated HDM2 residues 17 to 125, 0.5 nM HDM2, 3 nM FITC labeled 8-mer peptide, two hour incubation. The source says: Methods: An HDM2 FRET assay was developed to assess the compounds' inhibitory activity towards binding of p53 protein. A truncated version of HDM2 with residues 17 to 125 (containing p53 binding surface, Science (1994) 265, 346-355), with N-terminal His and Thioredoxin tag was generated in pET32a expression vector and expressed in E. coli strain BL21(DE3)Rosetta. Protein was purified using Ni-affinity chromatography, followed by size exclusion chromatography using Superdex 75 26/60 column. To assess inhibition of p53 binding to HDM2, a FITC labeled 8-mer peptide (sequence: Ac-Phe-Arg-Dpr-Ac6c-(6-Br)Trp-Glu-Glu-Leu-NH2; Anal Biochem. 2004 Aug. 1; 331(1):138-46) with strong affinity towards p53 binding pocket of HDM2 was used. The HDM2 assay buffer contained 1× Phosphate Buffered Saline (Invitrogen, Cat#14190), 0.01% BSA (Jackson ImmunoResearch, Cat#001-000-162), 0.01% Tween-20. In the 1× assay buffer recombinant HDM2 protein, peptide and Lumi4-Tb Cryptate-conjugate mouse anti-6×HIS antibody (cisbio, Cat#Tb61HISTLB) were added and transferred to ProxiPlate PLUS (PerkinElmer, Cat#6008269), containing compounds so that final DMSO concentration is 0.1%. Final concentrations of reagents in the assay wells are 0.5 nM HDM2, 0.25 nM anti HIS (Tb label) antibody and 3 nM peptide. After two hour incubation at room temperature in a humidified chamber plates were read on EnVision plate reader with the following settings: excitation: UV, […], two emission filters: 520 nm and 495 nm respectively. Ratio of em520/em495 was used to calculate % inhibition and to obtain IC50 with 4-parameter logistic equation.
IC50 DETERMINATIONS: Dose-response curves were plotted from the inhibition data, from 10 point serial dilutions of inhibitory compounds. Concentration of compound was plotted against em520/Cem495 ratio signal. To generate IC50 values, the dose-response curves were fitted to a standard sigmoidal curve and IC50 values were derived by nonlinear regression analysis. IC50 values in the above table are rounded to the nearest integer.

Consider `C[C@@H](Nc1nc(-c2noc(=O)[nH]2)nc2ncn(Cc3ccc(C(F)(F)F)cc3)c12)C1CCC1` [Example 1.14, 3-(6-{[(1R)-1-cyclobutylethyl]amino}-7-[4-(trifluoromethyl)benzyl]-7H-purin-2-yl)-1,2,4-oxadiazol-5(4H)-one], for which the pIC50 (Table 1) was 7.67.
The same measure, in the same setting: in the case of `C[C@@H](Nc1nc(-c2n[nH]c(=O)o2)nc2ncn(C[C@H]3CC[C@H](C)CC3)c12)C1CCC1` [Example 1.15, 5-(6-{[(1R)-1-cyclobutylethyl]amino}-7-[(trans-4-methylcyclohexyl)methyl]-7H-purin-2-yl)-1,3,4-oxadiazol-2(3H)-one] it was 7.28; in that of `C[C@@H](Nc1nc(-c2n[nH]c(=O)n2C)nc2ncn(C[C@H]3CC[C@H](C)CC3)c12)C1CCC1` [Example 1.16, 5-(6-{[(1R)-1-cyclobutylethyl]amino}-7-[(trans-4-methylcyclohexyl)methyl]-7H-purin-2-yl)-4-methyl-2,4-dihydro-3H-1,2,4-triazol-3-one], 6.62.
For the compound `C[C@H]1CC[C@H](Cn2cnc3nc(-c4noc(=O)[nH]4)nc(-c4cccc(Cl)c4)c32)CC1` [Example 2.1, 3-{6-(3-chlorophenyl)-7-[(trans-4-methylcyclohexyl)methyl]-7H-purin-2-yl}-1,2,4-oxadiazol-5(4H)-one], under “Table 2”, the pIC50 is 7.27.
The same measure, in the same setting: in the case of `C[C@H]1CC[C@H](Cn2cnc3nc(-c4noc(=O)[nH]4)nc(-c4ccnc(Cl)c4F)c32)CC1` [Example 2.2, 3-{6-(2-chloro-3-fluoropyridin-4-yl)-7-[(trans-4-methylcyclohexyl)methyl]-7H-purin-2-yl}-1,2,4-oxadiazol-5(4H)-one] it was 6.87; in that of `C[C@H]1CC[C@H](Cn2cnc3nc(-c4noc(=O)[nH]4)nc(-c4cc(Cl)ccn4)c32)CC1` [Example 2.3, 3-{6-(4-chloropyridin-2-yl)-7-[(trans-4-methylcyclohexyl)methyl]-7H-purin-2-yl}-1,2,4-oxadiazol-5(4H)-one], 6.60; in that of `C[C@H]1CC[C@H](Cn2cnc3nc(-c4noc(=O)[nH]4)nc(-c4cc(Cl)cc(C#N)c4)c32)CC1` [Example 2.4, 3-chloro-5-{7-[(trans-4-methylcyclohexyl)methyl]-2-(5-oxo-4,5-dihydro-1,2,4-oxadiazol-3-yl)-7H-purin-6-yl}benzonitrile], 6.38.
With `C[C@H]1CC[C@H](Cn2cnc3nc(-c4noc(=O)[nH]4)nc(-c4cc(Cl)ccc4O)c32)CC1` [Example 2.5, 3-{6-(5-chloro-2-hydroxyphenyl)-7-[(trans-4-methylcyclohexyl)methyl]-7H-purin-2-yl}-1,2,4-oxadiazol-5(4H)-one], the pIC50 (Table 2) is 6.07. This pIC50 is 0.31 log units lower than that of the compound before.
Same read-out and setting: in the case of `COc1cc(Cl)cc(-c2nc(-c3noc(=O)[nH]3)nc3ncn(C[C@H]4CC[C@H](C)CC4)c23)c1` [Example 2.6, 3-{6-(3-chloro-5-methoxyphenyl)-7-[(trans-4-methylcyclohexyl)methyl]-7H-purin-2-yl}-1,2,4-oxadiazol-5(4H)-one] it was 6.51.
On to `C[C@H]1CC[C@H](Cn2cnc3nc(-c4noc(=O)[nH]4)nc(-c4cc(O)cc(Cl)c4)c32)CC1` [Example 2.7, 3-{6-(3-chloro-5-hydroxyphenyl)-7-[(trans-4-methylcyclohexyl)methyl]-7H-purin-2-yl}-1,2,4-oxadiazol-5(4H)-one], for which the pIC50 (Table 2) is 6.95.
In turn, `C[C@H]1CC[C@H](Cn2cnc3nc(-c4noc(=O)[nH]4)nc(-c4cccc(Br)c4)c32)CC1` [Example 2.8, 3-{6-(3-bromophenyl)-7-[(trans-4-methylcyclohexyl)methyl]-7H-purin-2-yl}-1,2,4-oxadiazol-5(4H)-one] showed a pIC50 (Table 2) of 6.80.
The same measure, in the same setting: in the case of `C[C@H]1CC[C@H](Cn2cnc3nc(-c4noc(=O)[nH]4)nc(-c4cccc(C#N)c4)c32)CC1` [Example 2.9, 3-{7-[(trans-4-methylcyclohexyl)methyl]-2-(5-oxo-4,5-dihydro-1,2,4-oxadiazol-3-yl)-7H-purin-6-yl}benzonitrile] it was 6.29; in that of `CNC(=O)c1cc(Cl)cc(-c2nc(-c3noc(=O)[nH]3)nc3ncn(C[C@H]4CC[C@H](C)CC4)c23)c1` [Example 2.10, 3-chloro-N-methyl-5-{7-[(trans-4-methylcyclohexyl)methyl]-2-(5-oxo-4,5-dihydro-1,2,4-oxadiazol-3-yl)-7H-purin-6-yl}benzamide], 7.14; in that of `C[C@H]1CC[C@H](Cn2cnc3nc(-c4noc(=O)[nH]4)nc(-c4cc(Cl)cc(C(F)(F)F)c4)c32)CC1` [Example 2.11, 3-{6-[3-chloro-5-(trifluoromethyl)phenyl]-7-[(trans-4-methylcyclohexyl)methyl]-7H-purin-2-yl}-1,2,4-oxadiazol-5(4H)-one], 6.76.
On the same count and under the same terms, in the case of `C[C@H]1CC[C@H](Cn2cnc3nc(-c4noc(=O)[nH]4)nc(-c4cncc(Cl)c4)c32)CC1` [Example 2.12, 3-{6-(5-chloropyridin-3-yl)-7-[(trans-4-methylcyclohexyl)methyl]-7H-purin-2-yl}-1,2,4-oxadiazol-5(4H)-one] it was 7.07; in that of `C[C@H]1CC[C@H](Cn2cnc3nc(-c4noc(=O)[nH]4)nc(-c4cc(Cl)cc(C(N)=O)c4)c32)CC1` [Example 2.13, 3-chloro-5-{7-[(trans-4-methylcyclohexyl)methyl]-2-(5-oxo-4,5-dihydro-1,2,4-oxadiazol-3-yl)-7H-purin-6-yl}benzamide], 7.29; in that of `COCOc1cc(Cl)cc(-c2nc(-c3noc(=O)[nH]3)nc3ncn(C[C@H]4CC[C@H](C)CC4)c23)c1` [Example 2.14, 3-{6-[3-chloro-5-(methoxymethoxy)phenyl]-7-[(trans-4-methylcyclohexyl)methyl]-7H-purin-2-yl}-1,2,4-oxadiazol-5(4H)-one], 7.38.
On the same count and under the same terms, in the case of `C[C@H]1CC[C@H](Cn2cnc3nc(-c4noc(=O)[nH]4)nc(-c4ccnc(Cl)c4)c32)CC1` [Example 2.15, 3-{6-(2-chloropyridin-4-yl)-7-[(trans-4-methylcyclohexyl)methyl]-7H-purin-2-yl}-1,2,4-oxadiazol-5(4H)-one] it was 6.73.
For the setting “Table 2”, `C[C@H]1CC[C@H](Cn2cnc3nc(-c4noc(=O)[nH]4)nc(-c4cc(Cl)cnc4O)c32)CC1` [Example 2.16, 3-{6-(5-chloro-2-hydroxypyridin-3-yl)-7-[(trans-4-methylcyclohexyl)methyl]-7H-purin-2-yl}-1,2,4-oxadiazol-5(4H)-one] had a pIC50 of 7.06.
The same measure, in the same setting: in the case of `CS(=O)(=O)c1cc(Cl)cc(-c2nc(-c3noc(=O)[nH]3)nc3ncn(C[C@H]4CC[C@H](C)CC4)c23)c1` [Example 2.17, 3-{6-[3-chloro-5-(methylsulfonyl)phenyl]-7-[(trans-4-methylcyclohexyl)methyl]-7H-purin-2-yl}-1,2,4-oxadiazol-5(4H)-one] it was 6.60; in that of `C[C@H]1CC[C@H](Cn2cnc3nc(-c4noc(=O)[nH]4)nc(-c4cc(Cl)cc(N5CCCC5)c4)c32)CC1` [Example 2.18, 3-{6-(3-chloro-5-pyrrolidin-1-ylphenyl)-7-[(trans-4-methylcyclohexyl)methyl]-7H-purin-2-yl}-1,2,4-oxadiazol-5(4H)-one], 6.48; in that of `COC(=O)c1cc(C)cc(-c2nc(-c3noc(=O)[nH]3)nc3ncn(C[C@H]4CC[C@H](C)CC4)c23)c1` [Example 2.19, methyl 3-methyl-5-{7-[(trans-4-methylcyclohexyl)methyl]-2-(5-oxo-4,5-dihydro-1,2,4-oxadiazol-3-yl)-7H-purin-6-yl}benzoate], 6.24.
Still for that read-out and setting: in the case of `C[C@H]1CC[C@H](Cn2cnc3nc(C(=O)O)nc(-c4cncc(Cl)c4)c32)CC1` [Example 2.20, 6-(5-chloropyridin-3-yl)-7-[(trans-4-methylcyclohexyl)methyl]-7H-purine-2-carboxylic acid] it was 6.67; in that of `Cc1ncc(Cl)cc1-c1nc(-c2noc(=O)[nH]2)nc2ncn(C[C@H]3CC[C@H](C)CC3)c12` [Example 2.21, 3-{6-(5-chloro-2-methylpyridin-3-yl)-7-[(trans-4-methylcyclohexyl)methyl]-7H-purin-2-yl}-1,2,4-oxadiazol-5(4H)-one], 7.06.
Compound `COCCOc1cc(Cl)cc(-c2nc(-c3noc(=O)[nH]3)nc3ncn(C[C@H]4CC[C@H](C)CC4)c23)c1` [Example 2.22, 3-{6-[3-chloro-5-(2-methoxyethoxyl)phenyl]-7-[(trans-4-methylcyclohexyl)methyl]-7H-purin-2-yl}-1,2,4-oxadiazol-5(4H)-one] gave a pIC50 (Table 2) of 7.16.
